Test results: patent US20110178131A1, “Compounds Which Have Activity At M1 Receptor And Their Uses In Medicine” (priority 2008, published 2011)
Where a name gives a salt, the structure may show the parent alone.

Biological target: T1, human muscarinic M1 receptors (Homo sapiens, UniProt P11229)
T1 construct: expressed in transfected cells
T1 sequence (P11229 1-460): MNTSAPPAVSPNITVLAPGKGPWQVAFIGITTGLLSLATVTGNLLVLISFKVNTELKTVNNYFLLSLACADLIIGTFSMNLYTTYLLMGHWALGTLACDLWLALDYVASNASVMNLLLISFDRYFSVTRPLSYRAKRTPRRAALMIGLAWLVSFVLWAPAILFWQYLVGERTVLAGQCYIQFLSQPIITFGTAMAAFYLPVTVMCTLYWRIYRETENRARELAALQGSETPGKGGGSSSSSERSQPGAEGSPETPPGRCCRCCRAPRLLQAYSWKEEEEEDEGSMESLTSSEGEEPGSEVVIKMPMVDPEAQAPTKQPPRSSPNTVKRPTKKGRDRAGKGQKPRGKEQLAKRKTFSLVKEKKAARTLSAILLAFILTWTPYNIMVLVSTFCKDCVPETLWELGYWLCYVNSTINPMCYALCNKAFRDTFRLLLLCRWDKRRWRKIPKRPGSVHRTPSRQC
Assay: FLIPR experiments on M1 receptors (calcium response, agonism)
Assay type: cell-based
Details: CHO-M1 cells
Description: FLIPR Experiments on M1 Receptors to Determine a Agonist/Antagonist Potency
Compounds of the invention may be characterized in a functional assay to determine their ability to activate the intracellular calcium pathway in CHO cells with stable expression of human muscarinic M1 receptors using FLIPR (Fluorometric Imaging Plate Reader) technology. Briefly, CHO-M1 cells were plated (15,000/well) and allowed to grow overnight at 37 degrees. Media were removed and 30 μL loading buffer (HBSS with 2.5 mM probenicid, 2 μM Fluo-4, 500 μM Brilliant Black, pH 7.4) was added. After incubation at 37 degrees for 90 minutes, 10 μL of the assay buffer (HBSS with 2.5 mM probenecid, pH 7.4) containing test compounds was added to each well on the FLIPR instrument. Calcium response was monitored to determine agonism. […] Calcium response was then monitored again to determine compound's antagonism to acetylcholine. […] Results were imported into ActivityBase data analysis suite (ID Business Solution Inc., Parsippany, N.J.) where the curves were analysed by non-linear curve fitting and the resulting pEC50/fpKi were calculated. The maximum asymptotes of agonist compounds were calculated as percentage of maximum FLIPR response induced by carbamoylcholine chloride added as control on the same compound plates.

Compound `COCC1CCC(N2CCC(n3c(=O)oc4ccc(C#N)cc43)CC2)CC1` (mixture of isomers) [Example 1, 3-(1-{4-[(Methyloxy)methyl]cyclohexyl}-4-piperidinyl)-2-oxo-2,3-dihydro-1,3-benzoxazole-5-carbonitrile hydrochloride] has an EC50 (FLIPR calcium response, agonism, read-out: average pEC50 at the muscarinic M1 receptor (converted)) of less than 3.16 µM and an Emax (maximum asymptote as percentage of maximum FLIPR response induced by carbamoylcholine chloride, read-out: intrinsic activity) greater than 50%.
